{
  "source": "paper PMC6934184",
  "about": "“Selective DNA-PKcs inhibition extends the therapeutic index of localized radiotherapy and chemotherapy” (The Journal of Clinical Investigation, 2019)",
  "molecular_target": "T1, CDK5/p35 (Homo sapiens, UniProt Q00535)",
  "T1 construct": "purchased Thermo Fisher Scientific (Life Technologies) SelectScreen",
  "T1 sequence (Q00535 whole entry)": "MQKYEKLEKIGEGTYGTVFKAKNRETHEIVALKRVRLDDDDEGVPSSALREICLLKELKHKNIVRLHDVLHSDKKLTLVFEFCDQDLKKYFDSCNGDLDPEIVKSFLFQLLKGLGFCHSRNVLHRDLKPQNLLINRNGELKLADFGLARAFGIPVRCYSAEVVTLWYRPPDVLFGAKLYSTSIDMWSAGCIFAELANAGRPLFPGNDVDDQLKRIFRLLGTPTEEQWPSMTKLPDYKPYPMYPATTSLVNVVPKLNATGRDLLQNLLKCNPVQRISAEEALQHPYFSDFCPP",
  "T1 sequence (Q15078 whole entry partner)": "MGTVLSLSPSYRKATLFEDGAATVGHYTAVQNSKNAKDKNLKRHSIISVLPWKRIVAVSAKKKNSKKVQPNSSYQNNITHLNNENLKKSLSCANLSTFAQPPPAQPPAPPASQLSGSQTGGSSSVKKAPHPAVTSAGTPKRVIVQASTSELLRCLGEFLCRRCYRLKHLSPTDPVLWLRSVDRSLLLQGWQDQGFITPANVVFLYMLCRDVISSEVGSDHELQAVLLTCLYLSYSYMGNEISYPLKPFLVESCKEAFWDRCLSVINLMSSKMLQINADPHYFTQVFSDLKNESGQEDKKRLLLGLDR",
  "experiment": "SelectScreen Z'LYTE",
  "assay_type": "biochemical",
  "in_short": "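SelectScreen broad panel; activity (Z'LYTE, Adapta) plus binding formats. ATP: Km app for CSF1R Z'LYTE; 10 for CAMK1 Adapta. Readout = % per kinase.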",
  "data": [
    {"smiles": "CN(C(=O)CN1CCOCC1)c1ccc2sc3c(-c4cccc5c(=O)cc(N6CC7CCC(C6)O7)oc45)cccc3c2c1", "note": "[NU5455]", "values": [
      {"measurement": "inhibition at 1 µM", "result": -8.6, "unit": "%"}
    ]}
  ]
}
